Here are results for one compound from article PMC5218480 (PLoS ONE, 2017).

For this experiment, the system named is MV-4-11 cells. The experiment in a line: Gene expression microarray analysis (Affymetrix PrimeView) and GSEA. Details: RFU PODN (11730768_x_at) / Fold change /veh PODN (11730768_x_at) / RFU LINC00158 (11744669_a_at) / Fold change /veh LINC00158 (11744669_a_at) / RFU DUSP10 (11751237_a_at) / Fold change /veh DUSP10 (11751237_a_at) / RFU ID3 (11757404_x_at) / Fold change /veh ID3 (11757404_x_at) / RFU PLEKHG5 (11737974_s_at) / Fold change /veh PLEKHG5 (11737974_s_at) / RFU LRRC4B (11730491_at) / Fold change /veh LRRC4B (11730491_at) / RFU GIMAP4 (11747438_a_at) / Fold change /veh GIMAP4 (11747438_a_at) / RFU KRT8 (11758183_x_at) / Fold change /veh KRT8 (11758183_x_at) / RFU CNN1 (11734310_a_at) / Fold change /veh CNN1 (11734310_a_at) / RFU VPS37D (11726825_at) / Fold change /veh VPS37D (11726825_at) / RFU C10orf10 (11716522_x_at) / Fold change /veh C10orf10 (11716522_x_at) / RFU KIR2DL2 /// KIR2DL4 /// KIR2DL5A /// KIR2DL5B /// KIR2DS1 /// KIR2DS2 /// KIR2DS3 /// KIR2DS4 /// KIR3DL3 /// KIR3DL3 /// KIR3DS1 (11738374_at) / Fold change /veh KIR2DL2 /// KIR2DL4 /// KIR2DL5A /// KIR2DL5B /// KIR2DS1 /// KIR2DS2 /// KIR2DS3 /// KIR2DS4 /// KIR3DL3 /// KIR3DL3 /// KIR3DS1 (11738374_at) / RFU C1QL1 (11718748_at) / Fold change /veh C1QL1 (11718748_at) / RFU TMPRSS4 (11747572_a_at) / Fold change /veh TMPRSS4 (11747572_a_at) / RFU HAMP (11756126_x_at) / Fold change /veh HAMP (11756126_x_at) / RFU RNFT2 (11725882_a_at) / Fold change /veh RNFT2 (11725882_a_at) / RFU NR4A2 (11747474_a_at) / Fold change /veh NR4A2 (11747474_a_at) / RFU ABCC12 (11746883_a_at) / Fold change /veh ABCC12 (11746883_a_at) / RFU TMEM136 (11760407_x_at) / Fold change /veh TMEM136 (11760407_x_at) / RFU CLDN22 /// WWC2 (11732394_at) / Fold change /veh CLDN22 /// WWC2 (11732394_at) / RFU HLA-DPB1 (11760878_x_at) / Fold change /veh HLA-DPB1 (11760878_x_at) / RFU SPINT1 (11716480_a_at) / Fold change /veh SPINT1 (11716480_a_at) / RFU GAP43 (11754022_s_at) / Fold change /veh GAP43 (11754022_s_at) / RFU A4GNT (11735810_at) / Fold change /veh A4GNT (11735810_at) / RFU PRB3 (11715151_x_at) / Fold change /veh PRB3 (11715151_x_at) / RFU TUBB4B (11761932_at) / Fold change /veh TUBB4B (11761932_at) / RFU CAPN14 (11732068_a_at) / Fold change /veh CAPN14 (11732068_a_at) / RFU TMCC2 (11721928_a_at) / Fold change /veh TMCC2 (11721928_a_at) / RFU IRGQ (11745062_a_at) / Fold change /veh IRGQ (11745062_a_at) / RFU FAM174B (11720279_a_at) / Fold change /veh FAM174B (11720279_a_at) / RFU TMPRSS4 (11748680_a_at) / Fold change /veh TMPRSS4 (11748680_a_at) / RFU FAM212B (11763350_a_at) / Fold change /veh FAM212B (11763350_a_at) / RFU PLEKHG5 (11743358_a_at) / Fold change /veh PLEKHG5 (11743358_a_at) / RFU ZSCAN30 (11745921_a_at) / Fold change /veh ZSCAN30 (11745921_a_at) / RFU CMKLR1 (11741424_a_at) / Fold change /veh CMKLR1 (11741424_a_at) / RFU LOC101060620 /// MAPK8IP1 (11723275_at) / Fold change /veh LOC101060620 /// MAPK8IP1 (11723275_at) / RFU SPTSSB (11747773_x_at) / Fold change /veh SPTSSB (11747773_x_at) / RFU PRSS12 (11739890_at) / Fold change /veh PRSS12 (11739890_at) / RFU BIN1 (11741810_x_at) / Fold change /veh BIN1 (11741810_x_at) / RFU WNT11 (11732464_a_at) / Fold change /veh WNT11 (11732464_a_at) / RFU C10orf10 (11716521_a_at) / Fold change /veh C10orf10 (11716521_a_at) / RFU C5orf56 (11738089_at) / Fold change /veh C5orf56 (11738089_at) / RFU CYB561 (11721691_x_at) / Fold change /veh CYB561 (11721691_x_at) / RFU ANKRD19P (11752326_a_at) / Fold change /veh ANKRD19P (11752326_a_at) / RFU OR2T12 /// OR2T33 /// OR2T8 (11738714_s_at) / Fold change /veh OR2T12 /// OR2T33 /// OR2T8 (11738714_s_at) / RFU VCAN (11748164_a_at) / Fold change /veh VCAN (11748164_a_at) / RFU JSRP1 (11732532_at) / Fold change /veh JSRP1 (11732532_at) / RFU KRTAP10-11 (11738290_x_at) / Fold change /veh KRTAP10-11 (11738290_x_at) / RFU MYO3A (11730013_a_at) / Fold change /veh MYO3A (11730013_a_at) / RFU EBF3 (11725865_a_at) / Fold change /veh EBF3 (11725865_a_at) / RFU CAMK2N1 (11719241_x_at) / Fold change /veh CAMK2N1 (11719241_x_at) / RFU C5orf56 (11738088_a_at) / Fold change /veh C5orf56 (11738088_a_at) / RFU OLFML3 (11715873_a_at) / Fold change /veh OLFML3 (11715873_a_at) / RFU LOC100653217 /// NTM (11731650_a_at) / Fold change /veh LOC100653217 /// NTM (11731650_a_at) / RFU MAPK11 (11762145_a_at) / Fold change /veh MAPK11 (11762145_a_at) / RFU FIZ1 (11724087_x_at) / Fold change /veh FIZ1 (11724087_x_at) / RFU OASL (11726364_x_at) / Fold change /veh OASL (11726364_x_at) / RFU SOX15 (11748057_x_at) / Fold change /veh SOX15 (11748057_x_at) / RFU CD79A (11719716_a_at) / Fold change /veh CD79A (11719716_a_at) / RFU HIST1H1D (11736915_at) / Fold change /veh HIST1H1D (11736915_at) / RFU CASKIN2 (11723855_a_at) / Fold change /veh CASKIN2 (11723855_a_at) / RFU LOC730098 (11760151_x_at) / Fold change /veh LOC730098 (11760151_x_at) / RFU OR4N2 (11742367_at) / Fold change /veh OR4N2 (11742367_at) / RFU PRRT2 (11749266_a_at) / Fold change /veh PRRT2 (11749266_a_at) / RFU SNX32 (11753110_a_at) / Fold change /veh SNX32 (11753110_a_at) / RFU CDHR5 (11726645_a_at) / Fold change /veh CDHR5 (11726645_a_at) / RFU RCAN1 (11760418_a_at) / Fold change /veh RCAN1 (11760418_a_at) / RFU FAM167A (11723789_a_at) / Fold change /veh FAM167A (11723789_a_at) / RFU FAM26E (11764081_at) / Fold change /veh FAM26E (11764081_at) / RFU ISYNA1 (11749810_s_at) / Fold change /veh ISYNA1 (11749810_s_at) / RFU ACY1 (11761880_at) / Fold change /veh ACY1 (11761880_at) / RFU 11764098_at / Fold change /veh 11764098_at / RFU SAMD14 (11745864_x_at) / Fold change /veh SAMD14 (11745864_x_at) / RFU NPB (11741838_a_at) / Fold change /veh NPB (11741838_a_at) / RFU TMPRSS6 (11731388_a_at) / Fold change /veh TMPRSS6 (11731388_a_at) / RFU KRTAP10-2 (11738614_at) / Fold change /veh KRTAP10-2 (11738614_at) / RFU ARHGAP8 /// PRR5-ARHGAP8 (11727945_x_at) / Fold change /veh ARHGAP8 /// PRR5-ARHGAP8 (11727945_x_at) / RFU KRTAP5-7 /// NADSYN1 (11734609_at) / Fold change /veh KRTAP5-7 /// NADSYN1 (11734609_at) / RFU RASL12 (11751679_a_at) / Fold change /veh RASL12 (11751679_a_at) / RFU CDKN2B (11736163_a_at) / Fold change /veh CDKN2B (11736163_a_at) / RFU PRF1 (11729649_at) / Fold change /veh PRF1 (11729649_at) / RFU, ZNF638 /// ZNF638-IT1 / Fold change vs veh, ZNF638 /// ZNF638-IT1 / RFU, PANK3 / Fold change vs veh, PANK3 / RFU, SH3YL1 / Fold change vs veh, SH3YL1 / RFU, ZEB2 / Fold change vs veh, ZEB2 / RFU, NRIP1 / Fold change vs veh, NRIP1 / RFU, PTTG1IP / Fold change vs veh, PTTG1IP / RFU, CAPN2 / Fold change vs veh, CAPN2 / RFU, MED14 / Fold change vs veh, MED14 / RFU, SNORA58 / Fold change vs veh, SNORA58 / RFU, C1orf63 / Fold change vs veh, C1orf63 / RFU, LRRFIP1 / Fold change vs veh, LRRFIP1 / RFU, NDUFAF7 / Fold change vs veh, NDUFAF7 / RFU, SLC12A2 / Fold change vs veh, SLC12A2 / RFU, IBTK / Fold change vs veh, IBTK / RFU, ESF1 / Fold change vs veh, ESF1 / Fold change vs veh, TMEM50B / RFU, TAOK1 / Fold change vs veh, TAOK1 / RFU, ACBD3 / Fold change vs veh, ACBD3 / RFU, TMA16 / Fold change vs veh, TMA16 / RFU, RWDD3 / Fold change vs veh, RWDD3 / RFU, BCAT1 / Fold change vs veh, BCAT1 / RFU, EDEM3 / Fold change vs veh, EDEM3 / RFU, TMEM33 / Fold change vs veh, TMEM33 / RFU, WDR75 / Fold change vs veh, WDR75 / RFU, AHCTF1 / Fold change vs veh, AHCTF1 / RFU, TFRC / Fold change vs veh, TFRC / RFU, ZDHHC17 / Fold change vs veh, ZDHHC17 / RFU, NOM1 / Fold change vs veh, NOM1 / RFU, ARL8B / Fold change vs veh, ARL8B / RFU, ZBTB11 / Fold change vs veh, ZBTB11 / RFU, TAMM41 / Fold change vs veh, TAMM41 / RFU, KIAA1704 /// LOC100996395 / Fold change vs veh, KIAA1704 /// LOC100996395 / RFU, ING1 / Fold change vs veh, ING1 / RFU, TRMT61B / Fold change vs veh, TRMT61B / RFU, FUBP3 / Fold change vs veh, FUBP3 / RFU, TP53 / Fold change vs veh, TP53 / RFU, TNKS2 / Fold change vs veh, TNKS2 / RFU, ZFP14 / Fold change vs veh, ZFP14 / RFU, ACTR2 / Fold change vs veh, ACTR2 / RFU, PPP3R1 / Fold change vs veh, PPP3R1 / RFU, PIK3R1 / Fold change vs veh, PIK3R1 / RFU, HNRNPA1 / Fold change vs veh, HNRNPA1 / RFU, RNF170 / Fold change vs veh, RNF170 / RFU, ZNF28 / Fold change vs veh, ZNF28 / RFU, RNGTT / Fold change vs veh, RNGTT / RFU, OGT / Fold change vs veh, OGT / RFU, BRD1 / Fold change vs veh, BRD1 / RFU, MARS / Fold change vs veh, MARS / RFU, ZNF655 / Fold change vs veh, ZNF655 / RFU, FAHD1 / Fold change vs veh, FAHD1 / RFU, BDP1 / Fold change vs veh, BDP1 / RFU, LRRCC1 / Fold change vs veh, LRRCC1 / RFU, ARID1A / Fold change vs veh, ARID1A / RFU, ZNF146 / Fold change vs veh, ZNF146 / RFU, ZNF330 / Fold change vs veh, ZNF330 / RFU, GPN3 / Fold change vs veh, GPN3 / RFU, C9orf123 / Fold change vs veh, C9orf123 / RFU, N4BP2L2 / Fold change vs veh, N4BP2L2 / RFU, ARFIP1 / Fold change vs veh, ARFIP1 / RFU, FAM179B / Fold change vs veh, FAM179B / RFU, BCL10 / Fold change vs veh, BCL10 / RFU, UHRF1BP1L / Fold change vs veh, UHRF1BP1L / RFU, BET1 / Fold change vs veh, BET1 / RFU, CNOT2 / Fold change vs veh, CNOT2 / RFU, ZNF268 / Fold change vs veh, ZNF268 / Fold change vs veh, ZNF507 / RFU, DGCR2 / Fold change vs veh, DGCR2 / RFU, WDSUB1 / Fold change vs veh, WDSUB1 / Fold change vs veh, HSP90B1 /// MIR3652 / RFU, ADSS / Fold change vs veh, ADSS / RFU, GK / Fold change vs veh, GK / RFU, ZNF148 / Fold change vs veh, ZNF148 / RFU, TAF9 / Fold change vs veh, TAF9 / RFU, SLC1A5 / Fold change vs veh, SLC1A5 / RFU, SLMO2 / Fold change vs veh, SLMO2 / RFU, ABCC4 / Fold change vs veh, ABCC4 / RFU, LOC101060439 /// RAP1B / Fold change vs veh, LOC101060439 /// RAP1B / RFU, RFX7 / Fold change vs veh, RFX7 / RFU, GTPBP10 / Fold change vs veh, GTPBP10 / RFU, CNEP1R1 / Fold change vs veh, CNEP1R1 / RFU, BIVM-ERCC5 /// ERCC5 / Fold change vs veh, BIVM-ERCC5 /// ERCC5 / RFU, ILF3 / Fold change vs veh, ILF3 / RFU 11762660_at / Fold change /veh 11762660_at / RFU VCAN (11757783_s_at) / Fold change /veh VCAN (11757783_s_at) / RFU DDX43 (11728927_at) / Fold change /veh DDX43 (11728927_at) / RFU KRT8 (11758188_x_at) / Fold change /veh KRT8 (11758188_x_at) / RFU NKD1 (11759106_at) / Fold change /veh NKD1 (11759106_at) / RFU SRD5A1 (11742802_a_at) / Fold change /veh SRD5A1 (11742802_a_at) / RFU TPSAB1 /// TPSB2 (11721975_s_at) / Fold change /veh TPSAB1 /// TPSB2 (11721975_s_at) / RFU GSTM3 (11746129_a_at) / Fold change /veh GSTM3 (11746129_a_at) / RFU IL23R (11737362_x_at) / Fold change /veh IL23R (11737362_x_at) / RFU TMEM51 (11727254_a_at) / Fold change /veh TMEM51 (11727254_a_at) / RFU PIWIL2 (11732686_x_at) / Fold change /veh PIWIL2 (11732686_x_at) / RFU ORM1 (11744905_x_at) / Fold change /veh ORM1 (11744905_x_at) / RFU CCDC152 (11743942_at) / Fold change /veh CCDC152 (11743942_at) / RFU ECM1 (11717891_a_at) / Fold change /veh ECM1 (11717891_a_at) / RFU IL23R (11748794_a_at) / Fold change /veh IL23R (11748794_a_at) / RFU TNFAIP8L3 (11732012_x_at) / Fold change /veh TNFAIP8L3 (11732012_x_at) / RFU MBOAT4 (11741988_at) / Fold change /veh MBOAT4 (11741988_at) / RFU 11764193_at / Fold change /veh 11764193_at / RFU TMEM53 (11763286_at) / Fold change /veh TMEM53 (11763286_at) / RFU MAGEB2 (11727129_at) / Fold change /veh MAGEB2 (11727129_at) / RFU TMEM200A (11744735_a_at) / Fold change /veh TMEM200A (11744735_a_at) / RFU CCDC152 (11751479_a_at) / Fold change /veh CCDC152 (11751479_a_at) / RFU FAM211A (11726209_a_at) / Fold change /veh FAM211A (11726209_a_at) / RFU RGS16 (11746705_a_at) / Fold change /veh RGS16 (11746705_a_at) / RFU VCAN (11755009_s_at) / Fold change /veh VCAN (11755009_s_at) / RFU RHOB (11743442_s_at) / Fold change /veh RHOB (11743442_s_at) / RFU RGS16 (11720943_a_at) / Fold change /veh RGS16 (11720943_a_at) / RFU RGS16 (11720944_at) / Fold change /veh RGS16 (11720944_at) / RFU, VPS4B / Fold change vs veh, VPS4B / RFU, CREB1 / Fold change vs veh, CREB1 / RFU, DNAJC13 / Fold change vs veh, DNAJC13 / RFU, GNAQ / Fold change vs veh, GNAQ / RFU, CDK5R1 / Fold change vs veh, CDK5R1 / RFU, ZRANB3 / Fold change vs veh, ZRANB3 / RFU, CUL4A / Fold change vs veh, CUL4A / RFU, CCNY / Fold change vs veh, CCNY / RFU, UFL1 / Fold change vs veh, UFL1 / RFU, COG3 / Fold change vs veh, COG3 / RFU, DIAPH2 / Fold change vs veh, DIAPH2 / RFU, SKA2 / Fold change vs veh, SKA2 / RFU, AFF3 / Fold change vs veh, AFF3 / RFU, LMF1 / Fold change vs veh, LMF1 / RFU, IPO11 / Fold change vs veh, IPO11 / RFU, DFFB / Fold change vs veh, DFFB / RFU, FOXP1 / Fold change vs veh, FOXP1 / RFU, CARD8 / Fold change vs veh, CARD8 / RFU, STRN3 / Fold change vs veh, STRN3 / RFU, ADK / Fold change vs veh, ADK / RFU, RASSF2 / Fold change vs veh, RASSF2 / RFU, WIPF1 / Fold change vs veh, WIPF1 / RFU, LARP1B / Fold change vs veh, LARP1B / RFU, RASA1 / Fold change vs veh, RASA1 / RFU, RB1 / Fold change vs veh, RB1 / RFU, PPFIA1 / Fold change vs veh, PPFIA1 / RFU, MAT2A / Fold change vs veh, MAT2A / RFU, CCT5 / Fold change vs veh, CCT5 / RFU, WDR92 / Fold change vs veh, WDR92 / RFU, CUX1 / Fold change vs veh, CUX1 / RFU, TTC7A / Fold change vs veh, TTC7A / RFU, TMEM135 / Fold change vs veh, TMEM135 / RFU, DEPTOR / Fold change vs veh, DEPTOR / RFU, CPM / Fold change vs veh, CPM / RFU, DNAJB6 / Fold change vs veh, DNAJB6 / RFU, CACNA2D3 / Fold change vs veh, CACNA2D3 / RFU, DTX4 / Fold change vs veh, DTX4 / RFU, TFCP2 / Fold change vs veh, TFCP2 / RFU, GMCL1 /// GMCL1P1 / Fold change vs veh, GMCL1 /// GMCL1P1 / RFU, AEBP2 / Fold change vs veh, AEBP2 / RFU, SNHG1 /// SNORD22 /// SNORD25 /// SNORD26 /// SNORD27 /// SNORD28 /// SNORD29 /// SNORD31 / Fold change vs veh, SNHG1 /// SNORD22 /// SNORD25 /// SNORD26 /// SNORD27 /// SNORD28 /// SNORD29 /// SNORD31 / Fold change (Aza/veh), C12orf56 (ProbeSet 11735607_a_at) / Fold change (ACY-1035/veh), C12orf56 (ProbeSet 11735607_a_at) / Fold change (Aza/veh), FGFR1OP (ProbeSet 11751329_s_at) / Fold change (ACY-1035/veh), FGFR1OP (ProbeSet 11751329_s_at) / Fold change (Aza/veh), VPS36 (ProbeSet 11739960_a_at) / Fold change (ACY-1035/veh), VPS36 (ProbeSet 11739960_a_at) / RFU SYPL1 (11715823_x_at) / Fold change /veh SYPL1 (11715823_x_at) / RFU IGFBP7 (11715501_s_at) / Fold change /veh IGFBP7 (11715501_s_at) / RFU REEP3 (11722064_at) / Fold change /veh REEP3 (11722064_at) / RFU IGLL1 (11728026_x_at) / Fold change /veh IGLL1 (11728026_x_at): dose or concentration left out as unconfirmed. The note with it: MV-4-11 cells, 48 hours. Type of experiment: cell-based, human.

For the compound `Nc1ncn([C@@H]2O[C@H](CO)[C@@H](O)[C@H]2O)c(=O)n1` [azacitidine], the “RFU KIR2DL2 /// KIR2DL4 /// KIR2DL5A /// KIR2DL5B /// KIR2DS1 /// KIR2DS2 /// KIR2DS3 /// KIR2DS4 /// KIR3DL3 /// KIR3DL3 /// KIR3DS1 (11738374_at)” value is recorded as 10.60 RFU.
